For data set [1], the system named is RSV-A Memphis 37b challenge virus. The data set can be described thus: human RSV challenge model (viral load in nasal washes by plaque assay and PCR). Format: in vivo. As to the method: Healthy adults received one of the following dosing regimens or placebo over 5 days using the human RSV challenge model.
Subjects were given an intranasal inoculation of RSV-A Memphis 37b challenge virus. Administration of compound (A), or a pharmaceutically acceptable salt thereof, began approximately 12 hours after confirmation of RSV infection as determined by the presence of RSV RNA in nasopharyngeal washes. The test compound was administered as an oral-liquid suspension, wherein the drug vehicle was methyl cellulose and sterile water. The placebo was the drug vehicle without the test compound. Second dosages were started 12 hours after administration of the first dosage, and the remaining second dosages were provided in approximate 12 hour intervals. Nasal washes were collected twice daily approximately 36 to 48 hours after RSV inoculation until Day 12. Viral load was detected and quantified from the aliquots of the nasal wash samples using tissue infectivity plaque assays and PCR. (See DeVincenzo, J. P., et al., Am. J. Respir. Crit. Care. Med. (2010) 182(10):1305-1314) Subjects returned for two follow-up visits on Day 16 (±2 days) and Day 28 (±2 days) post-challenge inoculation.

A short description of data set [2]: half life of the triphosphate compound (B). The note with it: triphosphate formed inside the cell. The source says:
The compounds (A) and (B), or a pharmaceutically acceptable salt of the foregoing, are described in U.S. Publication Nos. 2013/0165400 and 2015/0051167 and International Publication Nos. WO 2013/142525 and WO 2013/142525, all of which are hereby incorporated by reference in their entireties. Those skilled in the art understand that once compound (A), or a pharmaceutically acceptable salt thereof, is absorbed, the groups attached to 3′ and 5′ positions can be easily removed by esterases, proteases and/or other enzymes. Once inside the cell, the triphosphate (compound (B), or a pharmaceutically acceptable salt thereof) can be formed via metabolization by cellular enzymes.

Consider two compounds from patent publication US20160022724A1, “METHODS FOR TREATING PARAMYXOVIRUSES” (Alios BioPharma, Inc., priority 2014, published 2016).

Each structure is given as a SMILES string.

For the compound `CC(C)C(=O)OC[C@@]1(CCl)O[C@@H](n2ccc(N)nc2=O)[C@H](F)[C@@H]1OC(=O)C(C)C` [Compound (A)], the “RSV RNA” value in data set [1] (Day 12, all treated subjects) is reported as “undetectable”; in data set [1] (Day 16 follow-up), “undetectable”; in data set [1] (Day 28 follow-up), “undetectable”. The “RSV viral load compared to the placebo” value in data set [1] (all regimens (750/150 mg, 750/500 mg, 375 mg), oral, 5 days, healthy adults, nasal wash, FIG. 1) is on record as “marked reduction in RSV viral load”. Besides, the “clinically significant laboratory abnormalities” value in data set [1] (healthy adults, 5 days dosing) was “no clinically significant laboratory abnormalities were observed”. Moreover, in data set [1] (healthy adults, 5 days dosing), the “discontinuation of treatment during the study” value is on record as “no subject discontinued treatment”. The “reduction of plaque forming units equivalents (PFUe/mL)” value in data set [1] (subjects who received 750 mg on Day 1, within the first 24 hours) is listed as “multi-log reduction”.
As a reminder, the half-life is the time needed for the level to fall by half in the phase considered. Higher therefore signals slow decline. Compound `Nc1ccn([C@@H]2O[C@](CCl)(COP(=O)(O)OP(=O)(O)OP(=O)(O)O)[C@@H](O)[C@H]2F)c(=O)n1` [Compound (B)] gave a half-life in data set [2] of about 17.6 h.
